How the values were obtained:
[1] = tested on: TNFα production in human whole blood; experiment: Inhibitory activity on LPS-induced TNFα production in human whole blood; type: cell-based; details: LPS stimulation, 37° C., 5 hours
Procedure: Inhibitory activities of the arylmethylene urea derivatives according to the present invention to the production of TNFα induced by stimulation with a lipopolysaccharide (LPS) were investigated using human whole blood.
After mixing each of the compounds of the present invention with human blood in a 96-well flat-bottom plate, the lipopolysaccharide (LPS) was added and the mixture was allowed to react at 37° C. for 5 hours. After the reaction, the resulting mixture was centrifuged at room temperature for 15 minutes, and supernatant of the resultant was recovered. For the quantification of TNFα in the supernatant, human cytokine kit (CIS biointernational) was used.

DSS-induced colitis = experiment: Dextran sulfate sodium (DSS)-induced colitis model of mice, rectal bleeding score; type: in vivo, BALB/c mice; details: 30 mg/kg orally every day from Day 27 to Day 31
Procedure: (§1) Female BALB/c mice (Japan SLC) of 7 to 9 weeks old were allowed to freely drink 3 w/v % dextran sulfate sodium (DSS) for 5 to 7 days, and then to freely drink sterilized distilled water for 5 days. This procedure was repeated 3 times to induce colitis. The uninduced (background) group was allowed to freely drink sterilized distilled water. The compound described in Example 2 was orally administered to the mice at a dose of 30 mg/kg every day from Day 27 to Day 31 counted from the start of the test, and rectal bleeding was scored (0: occult blood-negative, 2: occult blood-positive, 4: apparent bleeding) by using the method described by Murthy et al (see, for example, Dig Dis Sci., 38, 1722 (1993)).
(§2) On the other hand, the same test as in Example 452 was repeated except that 1-(4-(pyridin-4-yloxy)benzyl)-3-(3-t-butylisoxazol-5-yl)urea (the structural formula thereof is shown below) which is a compound included in WO 04/037789 was used in place of the compound of Example 2. The score on Day 32 (the last day of the test) of the colitis-uninduced group was 0, while the score of the colitis-induced group rose to 1.2±0.2.
as §1, with “Example 10” for “Example 2”
as §2, with “Example 453” for “Example 452”, “that 1-(4-(pyridin-4-yloxy)benzyl)-3-([…])urea” for “that 1-(4-(pyridin-4-yloxy)benzyl)-3-(3-t-butylisoxazol-5-yl)urea”, “Example 10.” for “Example 2.”

[2] = tested on: rhythmic bladder contractions; experiment: Rhythmic bladder contractions model in anesthetized rats; type: in vivo, SD rats; details: i.v., from a dose of 3 mg/kg; 10 minutes before and after administration; FIG. 1
Text: Using anesthetized rat rhythmic bladder contractions model, the inhibitory effect of the arylmethylene urea derivatives of the present invention on the detrusor hyperreflexia was investigated.
Female SD rats were anesthetized with an intraperitoneal injection of urethane (1.0 g/kg). A polyethylene tube was inserted from external urethral orifice into the bladder and the tube was fixed by ligating. The other end of the tube was equipped with a three-necked cock, and one of the necks thereof was connected to a pressure transducer for the measurement of intravesical pressure and the other neck was connected to a syringe for the infusion of physiological saline into the bladder. Thirty minutes after the surgery was completed, physiological saline in appropriate volume was infused via the tube in order to induce rhythmic bladder contractions. After stable rhythmic bladder contractions were obtained, a solution of each test compound or the solvent thereof was administered from a caudal vein in a volume of 0.5 mL/kg, and the effect on the frequency of bladder contractions was investigated. As the test compounds, the compounds of Examples 2 and 9 were used.
In each of the figures, the ordinate indicates the number of rhythmic bladder contractions for 10 minutes before and after administration of the compound.

[3] = tested on: cyclophosphamide-induced cystitis rats; experiment: Cyclophosphamide-induced overactive bladder (cystitis) model in rats, cystometrogram; type: in vivo, SD rats; details: i.v., from a dose of 3 mg/kg; FIG. 3-A
Procedure: Using cyclophosphamide-induced cystitis rats known as an overactive bladder (pollakiuria) model based on the hyperactivity of afferent sensory C-fibers, the effect of compounds on the cystometrograms was investigated.
Female SD rats were pre-treated with cyclophosphamide (150 mg/kg) intraperitoneally one day before (18 hours before) the assay in order to induce cystitis. On the next day, each of rats was anesthetized with an intrapertoneral injection of urethane (1.0 g/kg). Next, a small incision was formed in the hypogastrium, and both ureters were ligated, followed by forming small incision in the ureters at the side of the kidney. Then, the bladder apex was incised and a polyethylene tube filled with physiological saline was inserted and indwelled. The other end of the tube was equipped with a three-necked cock, and one of the necks thereof was connected to a pressure transducer for the measurement of intravesical pressure and the other neck was connected to an infusion pomp in order to infuse physiological saline. Thirty minutes after the surgery was completed, physiological saline was continuously infused (3.6 mL/hr) in order to obtain a continuous cystometrograms. One minute before the infusion, a solution of each test compound or the solvent thereof was administered from a caudal vein in a volume of 0.5 mL/kg. […]

IC50 [1]: 720 nM
SMILES: Cc1ccc(-n2nc(C(C)(C)C)cc2NC(=O)NCc2ccccc2Oc2ccnc(N3CCOCC3)n2)cc1 [Example 2, 1-(2-(2-morpholinopyrimidin-4-yloxy)benzyl)-3-(3-t-butyl-1-p-tolyl-1H-pyrazol-5-yl)urea]
amelioration of symptoms / improvement in the rectal bleeding score (in words) (DSS-induced colitis; Day 32): apparent amelioration of symptoms was observed
rectal bleeding score on Day 32 (0: occult blood-negative, 2: occult blood-positive, 4: apparent bleeding) (DSS-induced colitis; female BALB/c mice, 3 w/v % DSS): 0.2±0.1
effect on the number of rhythmic bladder contractions [2]: inhibited the rhythmic bladder contractions dose-dependently
effect on the increase in the frequency of urination (voiding episodes during 20 minutes) [3]: dose-dependently reduced the increase in the frequency of urination
